Assay results: BindingDB's records for doi:10.1016/j.bmc.2020.115818 (Taisho Pharmaceutical, 2020)
pEC50: −log10 of the molar value.

Experiment: Inhibition of F protein in Respiratory syncytial virus A2 infected in HepG2 cells assessed as reduction in virus-induced cytopathic effect incubated for 4 days by XTT assay

Compound: Cc1ccc2c(c1)C(=O)N1CCCC[C@H]1c1cc3nc([C@H]4C[C@H](O)C4)cc(n3n1)N(C)CCNC(=O)CO2
- pEC50: 9.11
